Test: Storage stability studies (Example 27): appearance, PXRD, HPLC purity, impurities and chiral purity
Type: physicochemical
Conditions: for Chiral Purity / Highest Impurity / Purity / Sulfide / Sulfone: HPLC
Description: A high performance liquid chromatography (HPLC) method for measuring the chemical purity of dexlansoprazole or a compound of formula (VII) of the present application, and for determination of their corresponding impurities, involves the use of a YMC-PAK ODS-A 100×4.6, 3 μm or equivalent column.
A high performance liquid chromatography method useful for measuring the enantiomeric purity of dexlansoprazole or a compound of formula (VII) of the present application involves the use of a Chiralpak-IC, 250×4.6 mm or equivalent column.
Products from certain of the above examples and a crystalline dexlansoprazole, prepared according to Example 2 of U.S. Pat. No. 6,462,058, were tested for their storage stabilities. The samples were stored in tied clear polyethylene bags that were placed in sealed black polyethylene bags along with a silica gel desiccant pouch filled with nitrogen, and finally the black bags were placed into triple laminated foil bags along with a silica gel pouch and then sealed and stored in HDPE drum packages under the conditions noted in the following results tables. Samples were analyzed before storage, at intervals during storage, and after storage.
Samples were analyzed by HPLC for chemical purity, for:
a “sulfide” impurity, having a chemical name 2-[[{4-(2,2,2-trifluoroethoxy)-3-methylpyridine-2-yl}methyl]thio]-1H-benzimidazole and the following structure;
a “sulfone” impurity, having a chemical name 2-[[{4-(2,2,2-trifluoroethoxy)-3-methylpyridine-2-yl}methyl]sulfonyl]-1H-benzimidazole and the following structure;
and for chiral purity. Also given in the tables is the concentration of the highest unidentified impurity, as determined by HPLC, and the PXRD analysis result. All percentages given below are expressed on a weight basis.

[1] = Initial Analysis, before storage

Cc1c(OCC(F)(F)F)ccnc1C[S@@+]([O-])c1nc2ccccc2[nH]1 [Crystalline Drug, dexlansoprazole]
Appearance (After 1 Week at 2-8° C.): Cream color | PXRD (After 1 Week at 2-8° C.): Crystalline | Chiral Purity (After 1 Week at 2-8° C.): 88.02% | Highest Impurity (After 1 Week at 2-8° C.): 0.14% | Purity (After 1 Week at 2-8° C.): 95.39% | Sulfide (After 1 Week at 2-8° C.): 2.48% | Sulfone (After 1 Week at 2-8° C.): 1.68% | Appearance (After 1 Week at 25-35° C.): Cream color | PXRD (After 1 Week at 25-35° C.): Crystalline | Chiral Purity (After 1 Week at 25-35° C.): 87.8% | Highest Impurity (After 1 Week at 25-35° C.): 0.14% | Purity (After 1 Week at 25-35° C.): 95.28% | Sulfide (After 1 Week at 25-35° C.): 2.48% | Sulfone (After 1 Week at 25-35° C.): 1.77% | Appearance (After 2 Weeks at 2-8° C.): Cream color | PXRD (After 2 Weeks at 2-8° C.): Crystalline | Chiral Purity (After 2 Weeks at 2-8° C.): 88.49% | Highest Impurity (After 2 Weeks at 2-8° C.): 0.13% | Purity (After 2 Weeks at 2-8° C.): 95.19% | Sulfide (After 2 Weeks at 2-8° C.): 2.36% | Sulfone (After 2 Weeks at 2-8° C.): 1.62% | Appearance (After 2 Weeks at 25-35° C.): Cream color | PXRD (After 2 Weeks at 25-35° C.): Crystalline | Chiral Purity (After 2 Weeks at 25-35° C.): 88.34% | Highest Impurity (After 2 Weeks at 25-35° C.): 0.13% | Purity (After 2 Weeks at 25-35° C.): 95.19% | Sulfide (After 2 Weeks at 25-35° C.): 2.36% | Sulfone (After 2 Weeks at 25-35° C.): 1.62% | Appearance (After 3 Weeks at 2-8° C.): Cream color | PXRD (After 3 Weeks at 2-8° C.): Crystalline | Chiral Purity (After 3 Weeks at 2-8° C.): 88.34% | Highest Impurity (After 3 Weeks at 2-8° C.): 0.14% | Purity (After 3 Weeks at 2-8° C.): 95.65% | Sulfide (After 3 Weeks at 2-8° C.): 2.31% | Sulfone (After 3 Weeks at 2-8° C.): 1.61% | Appearance (After 3 Weeks at 25-35° C.): Cream color | PXRD (After 3 Weeks at 25-35° C.): Crystalline | Chiral Purity (After 3 Weeks at 25-35° C.): 88.27% | Highest Impurity (After 3 Weeks at 25-35° C.): 0.13% | Purity (After 3 Weeks at 25-35° C.): 95.4% | Sulfide (After 3 Weeks at 25-35° C.): 2.39% | Sulfone (After 3 Weeks at 25-35° C.): 1.65% | Appearance [1]: Cream color | PXRD [1]: Crystalline | Chiral Purity [1]: 88.13% | Highest Impurity [1]: 0.15% | Purity [1]: 95.4% | Sulfide [1]: 2.41% | Sulfone [1]: 1.66%

Cc1c(OCC(F)(F)F)ccnc1C[S@@+]([O-])c1nc2ccccc2[nH]1 [Example 8, dexlansoprazole]
Appearance (After 1 Week at 2-8° C.): Light yellow | PXRD (After 1 Week at 2-8° C.): Amorphous | Chiral Purity (After 1 Week at 2-8° C.): 99.89% | Highest Impurity (After 1 Week at 2-8° C.): 0.13% | Purity (After 1 Week at 2-8° C.): 97.21% | Sulfide (After 1 Week at 2-8° C.): 1.83% | Sulfone (After 1 Week at 2-8° C.): 0.63% | Appearance (After 1 Week at 25-35° C.): Light yellow | PXRD (After 1 Week at 25-35° C.): Amorphous | Chiral Purity (After 1 Week at 25-35° C.): 99.86% | Highest Impurity (After 1 Week at 25-35° C.): 0.14% | Purity (After 1 Week at 25-35° C.): 97.12% | Sulfide (After 1 Week at 25-35° C.): 1.84% | Sulfone (After 1 Week at 25-35° C.): 0.68% | Appearance (After 2 Weeks at 2-8° C.): Light yellow | PXRD (After 2 Weeks at 2-8° C.): Amorphous | Chiral Purity (After 2 Weeks at 2-8° C.): 99.87% | Highest Impurity (After 2 Weeks at 2-8° C.): 0.11% | Purity (After 2 Weeks at 2-8° C.): 97.21% | Sulfide (After 2 Weeks at 2-8° C.): 1.79% | Sulfone (After 2 Weeks at 2-8° C.): 0.63% | Appearance (After 2 Weeks at 25-35° C.): Light yellow | PXRD (After 2 Weeks at 25-35° C.): Amorphous | Chiral Purity (After 2 Weeks at 25-35° C.): 99.86% | Highest Impurity (After 2 Weeks at 25-35° C.): 0.11% | Purity (After 2 Weeks at 25-35° C.): 97.23% | Sulfide (After 2 Weeks at 25-35° C.): 0.63% | Sulfone (After 2 Weeks at 25-35° C.): 1.78% | Appearance (After 3 Weeks at 2-8° C.): Light yellow | PXRD (After 3 Weeks at 2-8° C.): Amorphous | Chiral Purity (After 3 Weeks at 2-8° C.): 99.85% | Highest Impurity (After 3 Weeks at 2-8° C.): 0.12% | Purity (After 3 Weeks at 2-8° C.): 97.27% | Sulfide (After 3 Weeks at 2-8° C.): 1.77% | Sulfone (After 3 Weeks at 2-8° C.): 0.62% | Appearance (After 3 Weeks at 25-35° C.): Light yellow | PXRD (After 3 Weeks at 25-35° C.): Amorphous | Chiral Purity (After 3 Weeks at 25-35° C.): 99.84% | Highest Impurity (After 3 Weeks at 25-35° C.): 0.15% | Purity (After 3 Weeks at 25-35° C.): 97% | Sulfide (After 3 Weeks at 25-35° C.): 1.79% | Sulfone (After 3 Weeks at 25-35° C.): 0.63% | Appearance [1]: Light yellow | PXRD [1]: Amorphous | Chiral Purity [1]: 99.86% | Highest Impurity [1]: 0.24% | Purity [1]: 97.14% | Sulfide [1]: 1.77% | Sulfone [1]: 0.61%

Cc1c(OCC(F)(F)F)ccnc1C[S@@+]([O-])c1nc2ccccc2[nH]1 [Example 16 (A), dexlansoprazole]
Appearance (After 1 Week at 2-8° C.): Light brown | PXRD (After 1 Week at 2-8° C.): Amorphous | Chiral Purity (After 1 Week at 2-8° C.): 96.57% | Highest Impurity (After 1 Week at 2-8° C.): 0.09% | Purity (After 1 Week at 2-8° C.): 83.76% | Sulfide (After 1 Week at 2-8° C.): 13.78% | Sulfone (After 1 Week at 2-8° C.): 1.48% | Appearance (After 1 Week at 25-35° C.): Light brown | PXRD (After 1 Week at 25-35° C.): Amorphous | Chiral Purity (After 1 Week at 25-35° C.): 96.56% | Highest Impurity (After 1 Week at 25-35° C.): 0.14% | Purity (After 1 Week at 25-35° C.): 83.03% | Sulfide (After 1 Week at 25-35° C.): 13.83% | Sulfone (After 1 Week at 25-35° C.): 1.55% | Appearance (After 2 Weeks at 2-8° C.): Light brown | PXRD (After 2 Weeks at 2-8° C.): Amorphous | Chiral Purity (After 2 Weeks at 2-8° C.): 96.86% | Highest Impurity (After 2 Weeks at 2-8° C.): 0.17% | Purity (After 2 Weeks at 2-8° C.): 83.6% | Sulfide (After 2 Weeks at 2-8° C.): 13.63% | Sulfone (After 2 Weeks at 2-8° C.): 1.45% | Appearance (After 2 Weeks at 25-35° C.): Light brown | PXRD (After 2 Weeks at 25-35° C.): Amorphous | Chiral Purity (After 2 Weeks at 25-35° C.): 96.49% | Highest Impurity (After 2 Weeks at 25-35° C.): 1.16% | Purity (After 2 Weeks at 25-35° C.): 80.85% | Sulfide (After 2 Weeks at 25-35° C.): 13.8% | Sulfone (After 2 Weeks at 25-35° C.): 1.49% | Appearance (After 3 Weeks at 2-8° C.): Light brown | PXRD (After 3 Weeks at 2-8° C.): Amorphous | Chiral Purity (After 3 Weeks at 2-8° C.): 96.73% | Highest Impurity (After 3 Weeks at 2-8° C.): 0.07% | Purity (After 3 Weeks at 2-8° C.): 83.9% | Sulfide (After 3 Weeks at 2-8° C.): 13.69% | Sulfone (After 3 Weeks at 2-8° C.): 1.5% | Appearance (After 3 Weeks at 25-35° C.): Light brown | PXRD (After 3 Weeks at 25-35° C.): Amorphous | Chiral Purity (After 3 Weeks at 25-35° C.): 96.67% | Highest Impurity (After 3 Weeks at 25-35° C.): 0.8% | Purity (After 3 Weeks at 25-35° C.): 82.07% | Sulfide (After 3 Weeks at 25-35° C.): 13.69% | Sulfone (After 3 Weeks at 25-35° C.): 1.51% | Appearance [1]: Light brown | PXRD [1]: Amorphous | Chiral Purity [1]: 96.59% | Highest Impurity [1]: 0.08% | Purity [1]: 84.42% | Sulfide [1]: 13.43% | Sulfone [1]: 1.45%
